According to EP4268824A1 (Manros Therapeutics, priority 2022, dated 2023):

How the values were obtained:
F508del-CFTR = target: T1, F508del-CFTR (Homo sapiens, UniProt P13569, DEL508-508); test: CFTR activation assay: short-circuit current measurements (Ussing chamber) in CFBE cells treated 24 h with CFTR modulator(s) plus compound; assay type: cell-based; conditions: for F508del-CFTR activity ('inhibition shift' induced by CFTR-172) in reference to the CFTR activity induced by Trikafta® alone (value=100): substance with R1 = [drawing 9], CFBE cells, with Trikafta®
T1 construct: expressed in transfected cells; host or cells: CFBE41o- cells (CFBE F508del-CFTR), puromycin-selected
T1 sequence (P13569 with tags, fused parts or gaps DEL508-508): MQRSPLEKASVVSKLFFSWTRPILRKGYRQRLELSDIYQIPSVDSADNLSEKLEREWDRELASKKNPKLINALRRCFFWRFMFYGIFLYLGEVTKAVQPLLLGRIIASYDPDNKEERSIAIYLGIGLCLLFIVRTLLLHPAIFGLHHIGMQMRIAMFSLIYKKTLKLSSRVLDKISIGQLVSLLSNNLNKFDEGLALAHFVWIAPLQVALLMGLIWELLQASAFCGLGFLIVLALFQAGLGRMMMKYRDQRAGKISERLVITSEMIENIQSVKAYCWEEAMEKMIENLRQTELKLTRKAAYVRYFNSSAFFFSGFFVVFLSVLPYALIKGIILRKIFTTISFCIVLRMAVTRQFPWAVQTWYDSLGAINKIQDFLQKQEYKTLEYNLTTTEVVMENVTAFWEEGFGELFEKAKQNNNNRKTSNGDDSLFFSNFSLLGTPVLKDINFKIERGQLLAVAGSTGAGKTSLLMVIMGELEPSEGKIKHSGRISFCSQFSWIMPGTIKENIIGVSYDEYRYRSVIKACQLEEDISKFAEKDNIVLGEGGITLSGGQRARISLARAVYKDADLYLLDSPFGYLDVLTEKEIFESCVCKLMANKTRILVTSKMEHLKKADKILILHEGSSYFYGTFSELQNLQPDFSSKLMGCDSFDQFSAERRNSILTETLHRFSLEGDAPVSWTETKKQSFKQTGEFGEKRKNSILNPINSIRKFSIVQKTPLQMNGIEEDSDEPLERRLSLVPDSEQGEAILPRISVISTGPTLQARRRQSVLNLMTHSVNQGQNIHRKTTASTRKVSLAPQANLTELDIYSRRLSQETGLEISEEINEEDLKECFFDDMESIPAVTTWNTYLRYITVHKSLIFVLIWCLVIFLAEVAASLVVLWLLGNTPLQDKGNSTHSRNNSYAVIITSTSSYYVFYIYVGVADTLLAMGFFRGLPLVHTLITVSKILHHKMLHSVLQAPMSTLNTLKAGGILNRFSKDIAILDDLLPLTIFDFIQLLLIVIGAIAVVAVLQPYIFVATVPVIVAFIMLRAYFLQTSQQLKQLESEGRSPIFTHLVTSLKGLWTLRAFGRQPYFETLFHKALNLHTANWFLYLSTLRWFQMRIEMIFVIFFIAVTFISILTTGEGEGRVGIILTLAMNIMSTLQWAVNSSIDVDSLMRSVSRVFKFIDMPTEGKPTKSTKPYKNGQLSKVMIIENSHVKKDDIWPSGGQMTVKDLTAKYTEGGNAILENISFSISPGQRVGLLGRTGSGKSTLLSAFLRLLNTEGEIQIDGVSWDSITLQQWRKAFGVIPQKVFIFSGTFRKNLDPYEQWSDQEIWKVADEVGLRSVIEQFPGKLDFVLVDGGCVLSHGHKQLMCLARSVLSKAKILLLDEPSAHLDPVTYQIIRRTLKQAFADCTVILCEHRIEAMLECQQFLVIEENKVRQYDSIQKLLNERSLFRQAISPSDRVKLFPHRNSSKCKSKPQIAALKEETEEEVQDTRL
Description: • FIG 1. represents the conductance measurement as a function of time for assessing the activity of F508del-CFTR in CFBE cells using the Ussing chamber as set forth in example 13. Cells are incubated for 24 hours with either Trikafta® alone or Trikafta® + a compound of formula (I) as defined herein after. Conductance is measured as a function of time. […] This is the measure which are reported in all Tables shown below. • FIG 2. The correcting effect of Trikafta® on F508del-CFTR in a pulmonary epithelial cell line derived from a F508del-CFTR CF patient was tested as set forth in example 13 herein after in the presence of increasing concentrations of compound (44) as defined herein after and compound (107) as defined herein after. Dose-response curves were built from the activation and inhibition data (see FIG. 1). 100% represents the activity of Trikafta® alone. • FIG 3. […] CFE cells were treated with Trikafta® 100%, 33%, or 11%, in the absence or presence of 1 µM of compound (107). F508del-CFTR activity was monitored as described in the Experimental section and above. Activity is reported as percentage of δF508del-CFTR activity in the presence of Trikafta® alone (100%). The fold change over the activity of Trikafta® alone is indicated in parentheses. • FIG 4. The correcting effect of further CFTR modulators than Trikafta®, i.e. Galapagos compounds as defined herein after (GLPG 222 (G1), GLPG 1837 (G2), GLPG 2451 (G3)) (1 µM each) on F508del-CFTR in a pulmonary epithelial cell line derived from a F508del-CFTR CF patient was tested as set forth in example 13 herein after in the presence of increasing concentrations of compound (107) as defined herein after. Dose-response curves were built from the activation and inhibition data (see FIG. 1). 100% represents the activity of each CFTR modulator alone.
The activity of F508del-CFTR was indeed estimated according to the method described below in example 13. This method makes use of CFBE cells, an immortalized cell line generated from bronchial epithelium of a CF patient homozygous for F508del-CFTR [Kunzelmann, K. et al., 1993. An immortalized cystic fibrosis tracheal epithelial cell line homozygous for the F508del CFTR mutation. Am. J. Respir. Cell Mol. Biol. 8, 522-529.]. Cells are exposed for 24 hours to a combination of Trikafta® and a compound of formula (I) as defined herein after to be evaluated, and the activity of F508del-CFTR is measured by conductance in a Ussing chamber. The activation is initiated by addition of Forskolin (1 µM). […] All compounds tested were evaluated in combination with Trikafta®. In most instances, compounds were tested in triplicates at 0.1, 1 and 10 µM.
Wild-type CFBE cells (containing full-length, unmutated CFTR) are used as a reference.
F508del-CFTR expressing cells used in this present study were treated with CFTR modulators 24 h prior the experiments. The following CFTR modulators were used: Vx770 (Ivacaftor) (Selleckchem, S 1144) (Selleckchem, 24, rue des Tuileries, BP684, 67460 Souffelweyersheim, France), Vx445 (Elexacaftor) (Selleckchem, SE-S8851), Vx661 (Tezacaftor) (TargetMol, HY-15448) (TargetMol, Tebu-bio, 39 rue de Houdan, BP 15, 78612 Le-Perray-en-Yvelines cedex, France). Trikafta® is the combination of 1 µM Vx770, 3 µM Vx 445 and […] Vx661.
CFBE cell line stably expressing F508del-CFTR or WT-CFTR (CFBE WT-CFTR) were grown at 37°C in 5% CO2 - 95% air and media was replaced every 2 days.

CK1ε = CK1ε (Homo sapiens, UniProt P49674); test: Kinase inhibition, dose-response; assay type: biochemical; conditions: > 10: no inhibition at 10 µM, the highest dose tested
Sequence of CK1ε (P49674 whole entry): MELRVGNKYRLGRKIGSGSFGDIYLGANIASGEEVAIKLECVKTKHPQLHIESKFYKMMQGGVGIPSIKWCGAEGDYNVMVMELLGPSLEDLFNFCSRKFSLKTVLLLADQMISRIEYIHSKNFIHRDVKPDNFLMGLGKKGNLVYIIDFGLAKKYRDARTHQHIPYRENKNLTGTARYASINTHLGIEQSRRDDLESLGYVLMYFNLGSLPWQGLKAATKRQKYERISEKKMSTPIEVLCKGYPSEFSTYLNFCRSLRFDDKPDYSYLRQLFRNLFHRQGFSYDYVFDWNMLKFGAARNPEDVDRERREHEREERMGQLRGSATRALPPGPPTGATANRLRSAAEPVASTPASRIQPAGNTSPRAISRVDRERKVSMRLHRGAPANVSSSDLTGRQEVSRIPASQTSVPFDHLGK
Description: (§1) All compounds were additionally tested over a range of concentrations for their ability to inhibit a series of 14 kinases. IC50 values were calculated from the dose-response curves and are reported in µM. > 10, no inhibition at 10 µM, the highest dose tested (see table 6 below). [drawing 409] Table 5: CFE cells were treated with Trikafta in the presence of increasing concentrations of various compounds and their N7-methylated counterparts. Their F508del-CFTR activity is reported as percentage of F508del-CFTR activity in the presence of Trikafta alone (100%).

CLK2 = CLK2 (Homo sapiens, UniProt P49760); test: Kinase inhibition, dose-response; assay type: biochemical; conditions: > 10: no inhibition at 10 µM, the highest dose tested
Sequence of CLK2 (P49760 whole entry, species assumed): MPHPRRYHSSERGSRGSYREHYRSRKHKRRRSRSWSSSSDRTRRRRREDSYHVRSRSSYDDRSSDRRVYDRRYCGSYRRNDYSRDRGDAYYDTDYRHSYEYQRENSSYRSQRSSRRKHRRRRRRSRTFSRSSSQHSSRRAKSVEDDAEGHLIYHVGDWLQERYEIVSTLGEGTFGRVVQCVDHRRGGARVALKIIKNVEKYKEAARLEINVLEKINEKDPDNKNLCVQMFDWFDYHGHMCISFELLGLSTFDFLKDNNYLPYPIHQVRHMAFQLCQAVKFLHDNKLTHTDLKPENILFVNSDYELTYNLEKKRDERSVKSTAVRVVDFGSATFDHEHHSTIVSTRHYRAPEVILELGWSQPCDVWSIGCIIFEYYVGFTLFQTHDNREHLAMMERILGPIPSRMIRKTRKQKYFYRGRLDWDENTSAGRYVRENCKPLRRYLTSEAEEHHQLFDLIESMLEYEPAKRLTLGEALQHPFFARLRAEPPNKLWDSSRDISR
Description: as §1

CDK2 = CDK2 (Homo sapiens, UniProt P24941); test: Kinase inhibition, dose-response; assay type: biochemical; conditions: > 10: no inhibition at 10 µM, the highest dose tested
Description: as §1

CK1γ3 = CK1γ3 (Homo sapiens, UniProt Q9Y6M4); test: Kinase inhibition, dose-response; assay type: biochemical; conditions: > 10: no inhibition at 10 µM, the highest dose tested
Description: as §1

CK1α1 = CK1α1 (Homo sapiens, UniProt P48729); test: Kinase inhibition, dose-response; assay type: biochemical; conditions: > 10: no inhibition at 10 µM, the highest dose tested
Sequence of CK1α1 (P48729 whole entry): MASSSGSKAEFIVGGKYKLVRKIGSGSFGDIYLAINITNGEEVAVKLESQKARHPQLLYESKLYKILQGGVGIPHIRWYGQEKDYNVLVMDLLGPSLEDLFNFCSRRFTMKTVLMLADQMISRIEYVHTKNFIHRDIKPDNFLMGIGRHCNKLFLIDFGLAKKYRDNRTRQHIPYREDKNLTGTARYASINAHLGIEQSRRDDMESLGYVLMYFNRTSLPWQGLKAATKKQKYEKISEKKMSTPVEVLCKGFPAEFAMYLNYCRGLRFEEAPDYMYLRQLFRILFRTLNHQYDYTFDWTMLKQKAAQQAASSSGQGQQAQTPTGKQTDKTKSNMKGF
Description: as §1

CLK3 = CLK3 (Homo sapiens, UniProt P49761); test: Kinase inhibition, dose-response; assay type: biochemical; conditions: > 10: no inhibition at 10 µM, the highest dose tested
Description: as §1

CK1γ1 = CK1γ1 (Homo sapiens, UniProt Q9HCP0); test: Kinase inhibition, dose-response; assay type: biochemical; conditions: > 10: no inhibition at 10 µM, the highest dose tested
Description: as §1

CDK9 = CDK9 (Homo sapiens, UniProt P50750); test: Kinase inhibition, dose-response; assay type: biochemical; conditions: > 10: no inhibition at 10 µM, the highest dose tested
Sequence of CDK9 (P50750 whole entry, species assumed): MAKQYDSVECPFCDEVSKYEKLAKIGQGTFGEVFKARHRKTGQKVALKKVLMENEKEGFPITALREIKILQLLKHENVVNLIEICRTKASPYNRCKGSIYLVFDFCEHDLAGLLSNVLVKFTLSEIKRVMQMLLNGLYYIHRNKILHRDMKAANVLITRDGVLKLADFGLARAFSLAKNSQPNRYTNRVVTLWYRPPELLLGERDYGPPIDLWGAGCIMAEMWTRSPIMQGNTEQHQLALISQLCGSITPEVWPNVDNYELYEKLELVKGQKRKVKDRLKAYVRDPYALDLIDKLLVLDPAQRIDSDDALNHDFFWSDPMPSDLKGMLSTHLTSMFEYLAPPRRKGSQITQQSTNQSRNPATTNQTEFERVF
Sequence of CDK9 (O60563 whole entry partner, species assumed): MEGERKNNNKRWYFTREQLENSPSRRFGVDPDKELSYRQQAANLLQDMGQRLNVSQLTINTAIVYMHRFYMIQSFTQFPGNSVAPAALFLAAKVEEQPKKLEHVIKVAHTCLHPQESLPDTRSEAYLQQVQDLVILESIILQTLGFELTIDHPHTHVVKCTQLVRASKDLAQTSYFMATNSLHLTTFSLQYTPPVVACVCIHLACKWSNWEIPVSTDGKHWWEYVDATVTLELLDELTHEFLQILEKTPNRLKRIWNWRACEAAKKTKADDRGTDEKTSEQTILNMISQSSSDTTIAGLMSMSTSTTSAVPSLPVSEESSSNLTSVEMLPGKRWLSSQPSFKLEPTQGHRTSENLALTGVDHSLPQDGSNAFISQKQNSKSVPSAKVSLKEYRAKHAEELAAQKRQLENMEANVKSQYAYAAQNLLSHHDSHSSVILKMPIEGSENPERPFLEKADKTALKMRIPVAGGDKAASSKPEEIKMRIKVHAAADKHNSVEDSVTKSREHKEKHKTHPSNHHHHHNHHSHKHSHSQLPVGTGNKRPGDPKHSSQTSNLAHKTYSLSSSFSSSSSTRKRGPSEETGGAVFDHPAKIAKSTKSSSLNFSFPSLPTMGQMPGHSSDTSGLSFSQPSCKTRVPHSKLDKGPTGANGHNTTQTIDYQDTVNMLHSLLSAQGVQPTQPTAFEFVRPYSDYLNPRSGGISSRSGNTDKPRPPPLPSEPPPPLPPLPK
Description: as §1

CLK1 = CLK1 (Homo sapiens, UniProt P49759); test: Kinase inhibition, dose-response; assay type: biochemical; conditions: > 10: no inhibition at 10 µM, the highest dose tested
Description: as §1

DYRK1A = DYRK1A (Homo sapiens, UniProt Q13627); test: Kinase inhibition, dose-response; assay type: biochemical; conditions: > 10: no inhibition at 10 µM, the highest dose tested
Description: as §1

CK1γ2 = CK1γ2 (Homo sapiens, UniProt P78368); test: Kinase inhibition, dose-response; assay type: biochemical; conditions: > 10: no inhibition at 10 µM, the highest dose tested
Sequence of CK1γ2 (P78368 whole entry): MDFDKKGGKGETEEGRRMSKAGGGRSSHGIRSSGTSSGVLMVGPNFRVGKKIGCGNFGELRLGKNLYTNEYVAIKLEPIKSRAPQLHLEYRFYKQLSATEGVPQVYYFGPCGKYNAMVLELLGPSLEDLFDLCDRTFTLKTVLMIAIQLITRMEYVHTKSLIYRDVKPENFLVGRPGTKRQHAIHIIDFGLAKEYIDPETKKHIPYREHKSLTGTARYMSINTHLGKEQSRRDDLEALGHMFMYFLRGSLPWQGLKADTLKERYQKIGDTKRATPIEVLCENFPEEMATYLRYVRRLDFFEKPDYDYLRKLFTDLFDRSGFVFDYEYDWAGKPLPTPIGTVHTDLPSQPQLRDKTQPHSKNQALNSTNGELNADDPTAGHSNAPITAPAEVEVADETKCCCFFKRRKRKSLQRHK
Description: as §1

CK1δ = CK1δ (Homo sapiens, UniProt P48730); test: Kinase inhibition, dose-response; assay type: biochemical; conditions: > 10: no inhibition at 10 µM, the highest dose tested
Sequence of CK1δ (P48730 whole entry): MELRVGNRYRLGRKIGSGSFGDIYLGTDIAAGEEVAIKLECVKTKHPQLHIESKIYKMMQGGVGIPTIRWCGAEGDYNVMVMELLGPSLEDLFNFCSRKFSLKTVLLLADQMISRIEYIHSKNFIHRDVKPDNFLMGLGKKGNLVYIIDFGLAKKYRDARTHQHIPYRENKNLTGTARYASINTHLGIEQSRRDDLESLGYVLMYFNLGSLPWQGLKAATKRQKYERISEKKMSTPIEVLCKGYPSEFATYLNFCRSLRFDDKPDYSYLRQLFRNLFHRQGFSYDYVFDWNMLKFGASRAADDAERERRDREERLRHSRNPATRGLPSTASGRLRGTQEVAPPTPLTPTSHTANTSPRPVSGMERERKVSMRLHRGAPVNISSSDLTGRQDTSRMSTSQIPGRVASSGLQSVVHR
Description: as §1

CDK7 = CDK7 (Homo sapiens, UniProt P50613); test: Kinase inhibition, dose-response; assay type: biochemical; conditions: > 10: no inhibition at 10 µM, the highest dose tested
Description: as §1

CLK4 = CLK4 (Homo sapiens, UniProt Q9HAZ1); test: Kinase inhibition, dose-response; assay type: biochemical
Excerpt: All compounds were additionally tested over a range of concentrations for their ability to inhibit a series of 14 kinases. […] Their F508del-CFTR activity is reported as percentage of F508del-CFTR activity in the presence of Trikafta alone (100%).

LogD determined by HPLC = assay type: physicochemical

CC(C)n1cnc2c(NCc3ccccc3)cc(N[C@@H]3CCOC3)nc21 [(A), reference compound]
F508del-CFTR activity ('inhibition shift' induced by CFTR-172) in reference to the CFTR activity induced by Trikafta® alone (value=100) (F508del-CFTR; C 0.1 µM): 82.7
F508del-CFTR activity ('inhibition shift' induced by CFTR-172) in reference to the CFTR activity induced by Trikafta® alone (value=100) (F508del-CFTR; C 1 µM): 107.8
F508del-CFTR activity ('inhibition shift' induced by CFTR-172) in reference to the CFTR activity induced by Trikafta® alone (value=100) (F508del-CFTR; C 10 µM): 114.5

CC(C)c1cnc2c(NCc3ccccc3)nc(NC3CCOCC3)nn12 [compound 44]
IC50 (CK1ε): 1730 nM
IC50 (CLK2): 493 nM
IC50 (CDK2): 579 nM
IC50 (CK1γ3): > 10000 nM
IC50 (CK1α1): > 10000 nM
IC50 (CLK3): > 10000 nM
IC50 (CK1γ1): > 10000 nM
IC50 (CDK9): 1170 nM
IC50 (CLK1): 537 nM
IC50 (DYRK1A): 6530 nM
IC50 (CK1γ2): > 10000 nM
IC50 (CK1δ): 626 nM
IC50 (CDK7): 207 nM
IC50 (CLK4): 580 nM

CC(C)c1cnn2c(NCc3ccccc3)nc(N[C@@H]3CCOC3)nc12 [(C), reference compound]
F508del-CFTR activity ('inhibition shift' induced by CFTR-172) in reference to the CFTR activity induced by Trikafta® alone (value=100) (F508del-CFTR; C 0.1 µM): 109.7
F508del-CFTR activity ('inhibition shift' induced by CFTR-172) in reference to the CFTR activity induced by Trikafta® alone (value=100) (F508del-CFTR; C 1 µM): 99.5
F508del-CFTR activity ('inhibition shift' induced by CFTR-172) in reference to the CFTR activity induced by Trikafta® alone (value=100) (F508del-CFTR; C 10 µM): 116.1

CC(C)c1cnc2c(NCc3ccccc3)nc(Nc3ccnn3C)nn12 [compound 107, N4-Benzyl-7-isopropyl-N2-(2-methylpyrazol-3-yl)imidazo[2,1-f][1,2,4]triazine-2,4-diamine]
chromatographic logD (LogD determined by HPLC): 2.98
F508del-CFTR activation with diluted Trikafta® (F508del-CFTR; Trikafta® 100%, 33% or 11%, absence or presence of 1 µM compound, FIG 3): compensates the dilution of Trikafta®

CC(C)c1cnc2c(NCc3ccccc3)nc(NC3CCCC[C@@H]3O)nn12 (stereo in doubt) [compound 62, (1S)-2-[[4-(Benzylamino)-7-isopropyl-imidazo[2,1-f][1,2,4]triazin-2-yl]amino]cyclohexanol]
chromatographic logD (LogD determined by HPLC): 3.6

CC(C)c1cnc2c(NCc3ccccc3)nc(NCc3ccc(F)cc3)nn12 [compound 122, N4-Benzyl-N2-[(4-Fluorophenyl)methyl]-7-isopropyl-imidazo[2,1-f][1,2,4]triazine-2,4-diamine]
chromatographic logD (LogD determined by HPLC): 4.64

CC(C)c1cnn2c(NCc3ccccc3)cc(N[C@@H]3CCOC3)nc12 [(D), reference compound]
F508del-CFTR activity ('inhibition shift' induced by CFTR-172) in reference to the CFTR activity induced by Trikafta® alone (value=100) (F508del-CFTR; C 0.1 µM): 98.0
F508del-CFTR activity ('inhibition shift' induced by CFTR-172) in reference to the CFTR activity induced by Trikafta® alone (value=100) (F508del-CFTR; C 1 µM): 110.1
F508del-CFTR activity ('inhibition shift' induced by CFTR-172) in reference to the CFTR activity induced by Trikafta® alone (value=100) (F508del-CFTR; C 10 µM): 98.7

CC(C)c1cnc2c(NCc3cccnc3)nc(NC3CCC[C@@H]3O)nn12 (stereo partly drawn) [compound 66, (1S)-2-[[7-Isopropyl-4-(3-pyridylmethylamino)imidazo[2,1-f][1,2,4]triazin-2-yl]amino]cyclopentanol]
chromatographic logD (LogD determined by HPLC): 2.36

COCCNc1nc(NCc2ccccc2)c2ncc(C(C)C)n2n1 [compound 1, N4-Benzyl-7-isopropyl-N2-(2-methoxyethyl)imidazo[2,1-f][1,2,4]triazine-2,4-diamine]
chromatographic logD (LogD determined by HPLC): 3.5

CC(C)c1cnc2c(NCc3ccccc3)nc(NCc3ccccc3)nn12 [compound 121, N2,N4-Dibenzyl-7-isopropyl-imidazo[2,1-f][1,2,4]triazine-2,4-diamine]
chromatographic logD (LogD determined by HPLC): 4.6

CO[C@H]1CCCC1Nc1nc(NCc2ccccc2)c2ncc(C(C)C)n2n1 (stereo partly drawn) [compound 67, N4-Benzyl-7-isopropyl-N2-[(2S)-2-methoxycyclopentyl]imidazo[2,1-f][1,2,4]triazine-2,4-diamine]
chromatographic logD (LogD determined by HPLC): 4.25

CC(C)c1cnc2c(NCc3ccccc3)nc(NCc3cccnc3)nn12 [compound 124, N4-Benzyl-7-isopropyl-N2-(3-pyridylmethyl)imidazo[2,1-f][1,2,4]triazine-2,4-diamine]
chromatographic logD (LogD determined by HPLC): 3.12

CC(C)c1cnc2c(NCc3ccccc3)nc(NCc3ccccn3)nn12 [compound 123, N4-Benzyl-7-isopropyl-N2-(2-pyridylmethyl)imidazo[2,1-f][1,2,4]triazine-2,4-diamine]
chromatographic logD (LogD determined by HPLC): 3.26

CC(C)c1cnc2c(NCc3ccccc3)nc(NCC3CCCCC3)nn12 [compound 105, N4-Benzyl-N2-(cyclohexylmethyl)-7-isopropyl-imidazo[2,1-f][1,2,4]triazine-2,4-diamine]
chromatographic logD (LogD determined by HPLC): 5.9

CC(C)c1cnc2c(NCc3ccccc3)nc(NCCOc3ccccc3)nn12 [compound 2, N4-Benzyl-7-isopropyl-N2-(2-phenoxyethyl)imidazo[2,1-f][1,2,4]triazine-2,4-diamine]
chromatographic logD (LogD determined by HPLC): 4.74

CC(C)c1cnc2c(NCc3ccccc3)nc(NC3CCN(C)CC3)nn12 [compound 61, N4-Benzyl-7-isopropyl-N2-(1-methyl-4-piperidyl)imidazo[2,1-f][1,2,4]triazine-2,4-diamine]
chromatographic logD (LogD determined by HPLC): 2.14

CC(C)c1cnc2c(NCc3ccccc3)nc(NC3CCC[C@@H]3O)nn12 (stereo partly drawn) [compound 65, (1S)-2-[[4-(Benzylamino)-7-isopropyl-imidazo[2,1-f][1,2,4]triazin-2-yl]amino]cyclopentanol]
chromatographic logD (LogD determined by HPLC): 3.26
